According to patent publication EP0227593A1, “Use of chelating agents” (THE HOSPITAL FOR SICK CHILDREN, priority 1985, dated 1987):

Key:
HL-60 cells = assay: Colony growth of HL-60 cells; type: cell-based, human
Procedure: HL-60 cells, a promyeloctic leukemia cell line originally developed by Dr. R. Gallo, NIH, were used. Cells were grown in RPMI supplemented with 10 % heat inactivated fetal calf serum (FCS, Flow Laboratories, Rockville, MO) and 2 mM glutamine (Gibco, Berkely, CA), at densities ranging from 1-2 x 10⁵/ml to 1-10⁶/ml, in a 5 % CO₂ humidified atmosphere at 37°C.
HL-60 cells (10⁴/ml) were plated in 0.8 % methycellulose in RPMI-1640 medium supplemented with 20 % heat inactivated (56°C, 30 min) fetal calf serum at a final volume of 1 ml/culture plate. Cultures were set up in duplicates and maintained at 37°C in a 5 % CO₂ humidified atmosphere. Deferoxamine was dissolved in iron-free RPMI culture medium and added at the initiation of culture at different concentrations (1-10 µM). Colonies were counted at 7 days using an inverted microscope. A cluster of more than 20 cells was defined as a colony. Individual colonies were plucked from culture plates spread on glass slides and morphologically assessed after preparation with Wright's stain and non-specific esterase in the presence of fluoride (29). The self renewal capacity of cells was assessed according to McCulloch et al (30). RPMI-1640 medium was added to culture dishes for 2 hrs; the contents of each dish were then transferred into a tube, centrifuged and washed with medium three times. Cells from each dish were counted separately, and viability was assessed by trypan blue dye exclusion. Cells (1x10⁴/ml) from each dish were recultured in 0.8 % methylcellulose as before.

[1] = tested on: peripheral blood blast cells; assay: Surface marker analysis on PB smears before and after 48 hours of deferoxamine treatment (immunocytochemical method); type: in vivo, human; set-up: key to Ia intensity of staining / OKM1 intensity of staining / MY-4 intensity of staining: strong (+++); moderate (++); weak (+); settings: PB smears after 48 hours of deferoxamine treatment
Procedure: Cell Culture Procedure: 2 x 10⁵ T-depleted cells were incubated with 40 % RPMI-methylcellulose, 20 % PHA-LCM, 10 % FCS, irradiated feeder cells (10⁵/dish), 16.6 % RPMI in 35 mm Petri dishes. The culture dishes were placed into a specialized modular incubator chamber (Billups-Rosenberg, Del Mar, CA) in a humidified atmosphere of 5 % O₂, 5 % CO₂ and balanced nitrogen for 3-6 days. After 2 days of incubation, the culture dishes were carefully examined. Colonies were counted at day 4. A cluster of more than 20 cells was defined as a colony. Individual colonies were plucked from the culture plates and smeared on microscope slides for further evaluation, using Wright stain and non-specific esterase staining. For control, 2 x 10⁵ irradiated feeder cells were cultured in the same assay system in each experiment to exclude their potential for colony formation Immunocytochemical Method: The cell surface antigens of air dried smears were detected using monoclonal antibodies and intestinal alkaline phosphatase, as previously described. This assay was performed to detect surface antigens on patients' PB and BM smears and colonies plucked from cultures. The slides were counter- stained in hematoxylin for light microscopy and the presence of surface antigen was indicated as bright red granular cellular inclusions. Morphologic details were well preserved, and a very high degree of correlation between morphology and surface antigen expression was observed. The intensity of staining was defined as strong (+++), moderate (++) and weak (+). Immunofluorescence Method: The cell surface phenotype was determined by indirect cell-surface fluorescence: A fluorescein-conjugated goat anti-mouse IgG (FAb')₂ was used as second antibody. The labelling was performed at room temperature in the presence of 0.2 % sodium azide. The percentage of cells with surface fluorescence was determined by counting cells stained in three replicate wells using an inverted phase-fluorescent microscope. Monoclonal Antibodies: The following monoclonal antibodies were used in these studies: anti-OKIa (Ortho Diagnostic Systems Inc. Raritan, NJ) to detect HLA-D framework antigen, anti-MY-7, anti-Mol and anti-MY-4 (coulter Immunology) to identify myelomonocytic markers, anti-Ig. anti-BA1, anti-BA2, anti-B1, and anti-B4 (Becton-Dickinson) to recognize cells of the B-cell lineage, anti-J5 (Coulter Immunology) to recognize cells bearing common ALL (CALLA) antigen and anti-Leu-1 and anti-Leu-4 (Coulter Immunology) to recognize cells of the T-cell lineage.
DFO and Blast Cell Differentiation: After 48 hours of continuous infusion of DFO as a single agent, striking changes in blast cell surface markers were detected immunocytochemically (Table 3). Prior to treatment, no blasts expressed OKM1 antigen, and only 8 % weakly expressed MY-4. After 48 hours, these two antigens were strongly detected in peripheral blood blast cells. Concomitantly with DFO therapy, there was a sharp decline from 37 % to 0 % of cells bearing B₄ antigen.
Immunologic surface markers were dermined before and after 48 hours of deferoxamine treatment on PB smears using the immunocytochemical method

CC(=O)N(O)CCCCCNC(=O)CCC(=O)N(O)CCCCCNC(=O)CCC(=O)N(O)CCCCCN [DFO, desferioxamine methanesulfonate]
inhibition of HL-60 colony proliferation (HL-60 cells; 10 µm DFO): 100% | inhibition at 3.5 µM (HL-60 cells; Homo sapiens, HL-60, 3.5 µM DFO, read-out: inhibition of HL-60 colony proliferation): 50% | B4 positive cells [1]: 0% | CALLA positive cells [1]: 0% | Ia intensity of staining [1]: +++ | Ia positive cells [1]: 80% | Leu-1 positive cells [1]: 0% | Leu-4 positive cells [1]: 0% | MY-4 intensity of staining [1]: +++ | MY-4 positive cells [1]: 60% | OKM1 intensity of staining [1]: +++ | OKM1 positive cells [1]: 40%
